Data reported in US9296759B2, “Amino-oxazine and amino-dihydrothiazine compounds as beta-secretase modulators and methods of use” (AMGEN INC., priority 2011, dated 2016).

Key:
Cathepsin D = Cathepsin D (Homo sapiens (Human), UniProt P07339); test: In vitro enzymatic Cat D (Cathepsin D) FRET assay; assay type: biochemical; conditions: average IC50
Description: In Vitro Enzymatic Cat D (Cathepsin D) FRET (Fluorescence Resonance Energy Transfer) Assay
Recombinant CathepsinD was expressed in CHO cells. The assay buffer for CathepsinD is 0.05 M citrate pH 3.5, 10% DMSO final, 5 mM CHAPS. […] The assays are effectively started by the addition of different FRET substrates (20 nM for CathepsinD) and the combination is incubated for one hour. The FRET assay is terminated with by addition of Tris buffer, which raises the pH to neutrality, and the fluorescence is determined. The FRET substrate is a peptide with commercially available fluorophore and quencher, on opposite sides of the BACE cleavage site. […] Proteolytic cleavage of the FRET substrate releases quenching of fluorescence (CathepsinD excitation 500 nm and emission 580 nm).

[1] = system: Aβ40 in conditioned medium of cells stably expressing Amyloid Precursor Protein (APP); test: In vitro BACE cell-based assay (HEK cell assay, Aβ40 sandwich ELISA); conditions: average IC50, Aβ40, 24 h incubation
Description: In Vitro BACE Cell-Based Assay
The cell-based assay measures inhibition or reduction of Aβ40 in conditioned medium of test compound treated cells expressing amyloid precursor protein.
Cells stably expressing Amyloid Precursor Protein (APP) were plated at a density of 40K cells/well in 96 well plates (Costar). The cells were cultivated for 24 hours at 37° C. and 5% CO2 in DMEM supplemented with 10% FBS. The test compounds were then added to cells in 10-point dose response concentrations with the starting concentration being either 100 μM or 10 μM. The compounds were diluted from stock solutions in DMSO and the final DMSO concentration of the test compounds on cells was 0.1%. After 24 h of incubation with the test compounds the supernatant conditioned media was collected and the Aβ 40 levels were determined using a sandwich ELISA. The IC50 of the compound was calculated from the percent of control or percent inhibition of Aβ 40 as a function of the concentration of the test compound.
The sandwich ELISA to detect Aβ 40 was performed in 96 well microtiter plates, which were pre-treated with goat anti-rabbit IgG (Pierce). The capture and detecting antibody pair that were used to detect Aβ 40 from cell supernatants were affinity purified pAb40 (Biosource) and biotinylated 6E10 (Signet Labs Inc.), respectively. The optimal concentration for the pAb40 antibody was 3 μg/ml in Superblock/TBS (Pierce) that was supplemented with 0.05% Tween 20 (Sigma).
Cellular supernatants were incubated with the capture antibody for 3 h at 4° C., followed by 3 wash steps in TBS-tween (0.05%). The detecting antibody incubation was for 2 h at 4° C., again followed by the wash steps as described previously. The final readout of the ELISA is Time-Resolved Fluorescence (counts per minute) using Delfia reagents Streptavidin-Europium and Enhancement solutions (Perkin Elmer) and the Victor 2 multilabel counter (Perkin Elmer).

[2] = biological target: BACE 1 (beta secretase enzyme) (Homo sapiens (Human), UniProt P56817); test: In vitro enzymatic BACE FRET assay; assay type: biochemical; conditions: average IC50
Chain of BACE 1 (beta secretase enzyme) (P56817 46-501): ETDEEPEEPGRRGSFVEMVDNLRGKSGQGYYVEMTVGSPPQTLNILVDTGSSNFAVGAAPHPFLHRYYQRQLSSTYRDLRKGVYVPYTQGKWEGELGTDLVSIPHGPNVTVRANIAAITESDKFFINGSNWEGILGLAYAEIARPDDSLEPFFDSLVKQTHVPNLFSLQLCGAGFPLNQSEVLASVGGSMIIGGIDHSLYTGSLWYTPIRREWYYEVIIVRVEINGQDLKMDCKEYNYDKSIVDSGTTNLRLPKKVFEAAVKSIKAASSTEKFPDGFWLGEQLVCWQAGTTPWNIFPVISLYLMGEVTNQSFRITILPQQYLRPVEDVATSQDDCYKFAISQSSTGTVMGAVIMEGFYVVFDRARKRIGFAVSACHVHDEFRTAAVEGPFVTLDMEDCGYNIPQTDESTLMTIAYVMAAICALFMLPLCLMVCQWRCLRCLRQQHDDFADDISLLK
Description: In Vitro Enzymatic BACE FRET (Fluorescence Resonance Energy Transfer) Assay
The assay buffer used in this screen is 0.05 M acetate, pH 4.2, 10% DMSO final, 100 uM genapol (which is a nonionic detergent, below its Critical Micelle Concentration). […] This assay is effectively started by the addition of FRET substrate (50 nM) and the combination is incubated for one hour. The FRET assay is terminated with by addition of Tris buffer, which raises the pH to neutrality, and the fluorescence is determined. The FRET substrate is a peptide with commercially available fluorophore and quencher, on opposite sides of the BACE cleavage site. Proteolytic cleavage of the FRET substrate releases quenching of fluorescence (excitation […] and […]).

Chain of Cathepsin D (P07339 65-412, species assumed): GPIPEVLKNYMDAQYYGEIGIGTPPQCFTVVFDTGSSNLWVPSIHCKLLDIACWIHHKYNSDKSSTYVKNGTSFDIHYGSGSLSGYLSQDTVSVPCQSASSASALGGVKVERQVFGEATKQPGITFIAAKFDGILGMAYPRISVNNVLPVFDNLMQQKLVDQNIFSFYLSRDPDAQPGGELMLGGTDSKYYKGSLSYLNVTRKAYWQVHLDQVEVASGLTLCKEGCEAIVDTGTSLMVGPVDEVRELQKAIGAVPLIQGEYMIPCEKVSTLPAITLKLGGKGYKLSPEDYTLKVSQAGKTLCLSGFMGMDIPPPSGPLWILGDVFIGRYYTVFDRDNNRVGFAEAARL

Structure (SMILES) | IC50 (Cathepsin D) [nM] | IC50 [1] [nM] | IC50 [2] [nM] | IC50 ([1]; Homo sapiens, HEK293) [nM]
CCOc1cccnc1Nc1ccc2c(c1)[C@@]1(CCSC(N)=N1)c1cc(OC)cc(F)c1O2 [Example 33, (4S)-N~2~′-(3-ethoxy-2-pyridinyl)-5′-fluoro-7′-methoxy-5,6-dihydrospiro[1,3-thiazine-4,9′-xanthene]-2,2′-diamine] | 262000 | 65.9 | 48.6 | 
NC1=N[C@@]2(CCO1)c1cc(NC(=O)c3ccc(Cl)cn3)ccc1Oc1ncc(C3=CCCOC3)cc12 [Example 35, N-((5S)-2′-amino-3-(5,6-dihydro-2H-pyran-3-yl)-5′,6′-dihydrospiro[chromeno[2,3-b]pyridine-5,4′-[1,3]oxazin]-7-yl)-5-chloro-2-pyridinecarboxamide] | > 1650 |  | 5.1 | 3.3
NC1=N[C@@]2(CCO1)c1cc(NC(=O)c3ccc(Cl)cc3F)ccc1Oc1ncc(Br)cc12 [Example 37, N-((5S)-2′-amino-3-bromo-5′,6′-dihydrospiro[chromeno[2,3-b]pyridine-5,4′-[1,3]oxazin]-7-yl)-4-chloro-2-fluorobenzamide] | > 400000 |  | 120 | 125
COc1cc(F)c2c(c1)[C@]1(CCSC(N)=N1)c1cc(NC(=O)c3cnc(OC)cn3)ccc1O2 [Example 50, N-((4S)-2-amino-5′-fluoro-7′-methoxy-5,6-dihydrospiro[1,3-thiazine-4,9′-xanthen]-2′-yl)-5-methoxy-2-pyrazinecarboxamide] | > 400000 |  | 40.5 | 46.5
COc1cc(F)c2c(c1)[C@]1(CCOC(N)=N1)c1cc(Nc3ncccc3OCc3ccccc3)ccc1O2 [Example 57, (4S)-N~2~′-(3-(benzyloxy)-2-pyridinyl)-5′-fluoro-7′-methoxy-5,6-dihydrospiro[1,3-oxazine-4,9′-xanthene]-2,2′-diamine] | 400000 | 3510 | 7290 | 
COc1cnc(C(=O)Nc2ccc3c(c2)[C@@]2(CCSC(N)=N2)c2cc(C4=CCOCC4)cc(F)c2O3)cn1 [Example 60, N-((4S)-2-amino-7′-(3,6-dihydro-2H-pyran-4-yl)-5′-fluoro-5,6-dihydrospiro[1,3-thiazine-4,9′-xanthen]-2′-yl)-5-methoxy-2-pyrazinecarboxamide] | 174000 |  | 6.2 | 4.3
COc1nc(C2=CCOCC2)cc2c1Oc1ccc(NC(=O)c3ccc(Cl)cn3)cc1[C@@]21CCOC(N)=N1 [Example 62, N-((5S)-2′-amino-3-(3,6-dihydro-2H-pyran-4-yl)-1-methoxy-5′,6′-dihydrospiro[chromeno[2,3-c]pyridine-5,4′-[1,3]oxazin]-7-yl)-5-chloro-2-pyridinecarboxamide] | 400000 |  | 7 | 3.6
COc1cc(F)c2c(c1)[C@]1(CCOC(N)=N1)c1cc(NC(=O)c3ccc(Cl)cc3F)ccc1O2 [Example 76, N-((4S)-2-amino-5′-fluoro-7′-methoxy-5,6-dihydrospiro[1,3-oxazine-4,9′-xanthen]-2′-yl)-4-chloro-2-fluorobenzamide] | 400000 |  | 181 | 206

The remaining lines, values ahead:

IC50 (Cathepsin D) [nM] | IC50 [1] [nM] | IC50 [2] [nM] | IC50 ([1]; Homo sapiens, HEK293) [nM] | Structure (SMILES)
> 400000 |  | 45.1 | 14.8 | NC1=N[C@@]2(CCO1)c1cc(NC(=O)c3ccc(Cl)cn3)ccc1Oc1ncccc12 [Example 36, N-((5S)-2′-amino-5′,6′-dihydrospiro[chromeno[2,3-b]pyridine-5,4′-[1,3]oxazin]-7-yl)-5-chloro-2-pyridinecarboxamide]
> 4940 |  | 113 | 1660 | NC1=N[C@@]2(CCO1)c1cc(NC(=O)c3cnc(O)cn3)ccc1Oc1ncc(Br)cc12 [Example 43, N-((5S)-2′-amino-3-bromo-5′,6′-dihydrospiro[chromeno[2,3-b]pyridine-5,4′-[1,3]oxazin]-7-yl)-5-hydroxy-2-pyrazinecarboxamide]
> 1650 |  | 47.6 | 11 | COc1cnc(C(=O)Nc2ccc3c(c2)[C@@]2(CCOC(N)=N2)c2cc(Br)cnc2O3)cn1 [Example 44, N-((5S)-2′-amino-3-bromo-5′,6′-dihydrospiro[chromeno[2,3-b]pyridine-5,4′-[1,3]oxazin]-7-yl)-5-methoxy-2-pyrazinecarboxamide]
> 400000 |  | 7 | 23 | N#Cc1ccc(C(=O)Nc2ccc3c(c2)[C@@]2(CCOC(N)=N2)c2cc(Cl)nc(F)c2O3)nc1 [Example 46, N-((5S)-2′-amino-3-chloro-1-fluoro-5′,6′-dihydrospiro[chromeno[2,3-c]pyridine-5,4′-[1,3]oxazin]-7-yl)-5-cyano-2-pyridinecarboxamide]
323000 |  | 16.1 | 184 | NC1=N[C@@]2(CCO1)c1cc(NC(=O)c3cnc(Cl)cn3)ccc1Oc1c2cc(Cl)nc1F [Example 49, N-((5S)-2′-amino-3-chloro-1-fluoro-5′,6′-dihydrospiro[chromeno[2,3-c]pyridine-5,4′-[1,3]oxazin]-7-yl)-5-chloro-2-pyrazinecarboxamide]
132000 |  | 2 | 0.5 | N#Cc1ccc(C(=O)Nc2ccc3c(c2)[C@@]2(CCOC(N)=N2)c2cc(C4=CCCOC4)nc(F)c2O3)nc1 [Example 52, N-((5S)-2′-amino-3-(5,6-dihydro-2H-pyran-3-yl)-1-fluoro-5′,6′-dihydrospiro[chromeno[2,3-c]pyridine-5,4′-[1,3]oxazin]-7-yl)-5-cyano-2-pyridinecarboxamide]
> 400000 |  | 12.9 | 22.7 | COc1nc(C2CC2)cc2c1Oc1ccc(NC(=O)c3ccc(Cl)cn3)cc1[C@@]21CCOC(N)=N1 [Example 53, N-((5S)-2′-amino-3-cyclopropyl-1-methoxy-5′,6′-dihydrospiro[chromeno[2,3-c]pyridine-5,4′-[1,3]oxazin]-7-yl)-5-chloro-2-pyridinecarboxamide]
69900 |  | 913 | 3090 | COc1cnc(C(=O)Nc2ccc3c(c2)[C@]2(CCSC(N)=N2)c2cc(Cl)nc(F)c2O3)cn1 [Example 55, N-((5R)-2′-amino-3-chloro-1-fluoro-5′,6′-dihydrospiro[chromeno[2,3-c]pyridine-5,4′-[1,3]thiazin]-7-yl)-5-methoxy-2-pyrazinecarboxamide]
> 400000 |  | 6.2 | 167 | COc1cnc(C(=O)Nc2ccc3c(c2)[C@@]2(CCSC(N)=N2)c2cc(Cl)nc(F)c2O3)cn1 [Example 56, N-((5S)-2′-amino-3-chloro-1-fluoro-5′,6′-dihydrospiro[chromeno[2,3-c]pyridine-5,4′-[1,3]thiazin]-7-yl)-5-methoxy-2-pyrazinecarboxamide]
133000 |  | 0.6 | 0.082 | N#Cc1ccc(C(=O)Nc2ccc3c(c2)[C@@]2(CCOC(N)=N2)c2cc(-c4cncc(F)c4)nc(F)c2O3)nc1 [Example 69, N-((5S)-2′-amino-1-fluoro-3-(5-fluoro-3-pyridinyl)-5′,6′-dihydrospiro[chromeno[2,3-c]pyridine-5,4′-[1,3]oxazin]-7-yl)-5-cyano-2-pyridinecarboxamide]
147000 |  | 10.8 | 4.6 | COc1cc(F)c2c(c1)[C@]1(CCOC(N)=N1)c1cc(NC(=O)c3ccc(C#N)cn3)ccc1O2 [Example 74, N-((4S)-2-amino-5′-fluoro-7′-methoxy-5,6-dihydrospiro[1,3-oxazine-4,9′-xanthen]-2′-yl)-5-cyano-2-pyridinecarboxamide]
